The record followed here is patent US20170137387A1, “PHARMACOLOGICALLY ACTIVE QUINAZOLINEDIONE DERIVATIVES” (ORION CORPORATION, priority 2014, published 2017).

The target in assay [1] is T1, human GABAB1 and GABAB2 receptor subunits (Homo sapiens, UniProt O75899+Q9UBS5).
T1 construct: expressed in transfected cells; host or cells: CHO cells
In words: Agonism and positive allosteric modulator pharmacology in vitro, two-addition FLIPR calcium assay. Conditions: CHO cells co-expressing Galpha16; for IA (GABAB agonism): agonism efficacy at 30 μM / GABA efficacy at 30 μM; for IA (GABAB positive allosteric modulation): positive allosteric modulator efficacy at 10 μM (with EC10.5 GABA) / GABA efficacy at 30 μM. The assay is classed as cell-based. How it is done:
(§1) CHO cells expressing the human GABAB1 and GABAB2 receptor subunits co-expressing promiscuous Galpha16 proteins to force couple the receptor to the intracellular calcium signalling pathway were used to study GABAB pharmacology in vitro. The cells were maintained at 37° C. in a 5% CO2 95% air atmosphere in HAM F-12 medium supplemented with 10% foetal bovine serum and selection antibiotics.
(§2) The day before the experiment the cells were detached and plated into black-walled clear bottom 384-well plates at a cell density of 20 000 cells per well. The growth medium was removed and the cells were incubated with FLIPR Calcium 5 Assay reagent (Molecular Devices, CA, USA) diluted 1:1 in Probenecid-Ringer for 1 h at 37° C. in dark. Probenecid-Ringer buffer consisted of 150 mM NaCl, 3 mM KCl, 1.2 mM MgCl2, 1 mM CaCl2, 5 mM glucose, 20 mM 2-(4-(2-hydroxyethyl)piperazin-1-yl)ethanesulfonic acid (HEPES), and 2.5 mM Probenecid (pH 7.4 adjusted with 1.0 M NaOH and osmolarity adjusted to […]). Compounds were dissolved in Probenecid-Ringer. […] The samples were excited at 470-495 nm and emission was detected at 515-575 nm. All experiments were performed at 37° C.
A two-addition protocol was used to determine agonism and positive allosteric modulator pharmacology in the same assay using a kinetic read out. Agonism pharmacology of compounds was studied in the first addition in the concentration range 0.123-30 μM in quadruplicate at each concentration. In the second addition, a low (EC10.5) concentration of GABA was applied to detect the positive allosteric modulator pharmacology of the compounds to be studied. The EC10.5 concentration was determined from the GABA EC50 value using the formula ECF≈(F/(100-F))^1/H·EC50, wherein F is the fraction of full response and H is Hill slope.
(§3) Baseline fluorescence minimum was subtracted from maximum for the calculation of agonism and positive allosteric modulator pharmacology. Both in the agonism mode and in the allosteric mode, the efficacy was related to the intrinsic activity (IA) of the endogenous agonist GABA at 30 μM (positive allosteric modulator efficacy at 10 μM/GABA efficacy or agonism efficacy at 30 μM/GABA efficacy). To determine potentiation of GABA dose-response, the compounds, at a concentration of 10 μM diluted in Probenecid-Ringer, were added by FLIPR tetra followed by addition of GABA (diluted in water in the concentration range 0.123-10 μM). The EC50 values were determined using a four-parameter logistic fit (model 205 in ActivityBase XE). The EC50 value of GABA was divided with the EC50 value of GABA in the presence of positive allosteric modulator to determine potentiation of GABA dose-response EC50 value.

Assay [2] deals with T1, human GABAB1 and GABAB2 receptor subunits. In words: Potentiation of GABA dose-response, FLIPR calcium assay. The assay is classed as cell-based. The conditions noted are these: compound at 10 μM; EC50 of GABA divided by EC50 of GABA in the presence of positive allosteric modulator. As to the method: as §1, §2, §3

T1 sequence (Q9UBS5 15-961 limits assumed): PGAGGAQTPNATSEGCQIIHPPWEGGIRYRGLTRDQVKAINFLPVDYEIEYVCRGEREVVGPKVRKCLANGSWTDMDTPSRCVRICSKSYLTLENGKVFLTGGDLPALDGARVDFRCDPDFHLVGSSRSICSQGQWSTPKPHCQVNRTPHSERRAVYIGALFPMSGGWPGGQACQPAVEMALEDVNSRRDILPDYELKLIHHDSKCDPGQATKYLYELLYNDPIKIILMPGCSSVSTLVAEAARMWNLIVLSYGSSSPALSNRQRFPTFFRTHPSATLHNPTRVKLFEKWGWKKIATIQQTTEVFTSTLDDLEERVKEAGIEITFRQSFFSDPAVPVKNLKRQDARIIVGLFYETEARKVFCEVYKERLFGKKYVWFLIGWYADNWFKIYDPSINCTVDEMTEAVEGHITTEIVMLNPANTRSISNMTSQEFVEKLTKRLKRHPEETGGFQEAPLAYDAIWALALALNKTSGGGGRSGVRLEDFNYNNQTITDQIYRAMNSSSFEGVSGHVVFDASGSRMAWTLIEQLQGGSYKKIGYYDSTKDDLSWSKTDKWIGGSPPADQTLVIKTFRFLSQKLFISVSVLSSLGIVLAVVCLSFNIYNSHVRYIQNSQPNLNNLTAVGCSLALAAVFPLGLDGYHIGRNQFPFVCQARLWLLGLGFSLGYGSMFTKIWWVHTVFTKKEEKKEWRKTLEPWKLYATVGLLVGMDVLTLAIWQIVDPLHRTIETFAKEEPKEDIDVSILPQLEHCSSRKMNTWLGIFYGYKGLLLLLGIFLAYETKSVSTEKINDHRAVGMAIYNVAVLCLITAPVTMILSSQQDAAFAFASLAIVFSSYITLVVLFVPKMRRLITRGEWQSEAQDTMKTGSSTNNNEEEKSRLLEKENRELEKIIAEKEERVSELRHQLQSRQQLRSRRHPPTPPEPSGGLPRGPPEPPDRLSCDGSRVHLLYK
T1 sequence (O75899 42-941): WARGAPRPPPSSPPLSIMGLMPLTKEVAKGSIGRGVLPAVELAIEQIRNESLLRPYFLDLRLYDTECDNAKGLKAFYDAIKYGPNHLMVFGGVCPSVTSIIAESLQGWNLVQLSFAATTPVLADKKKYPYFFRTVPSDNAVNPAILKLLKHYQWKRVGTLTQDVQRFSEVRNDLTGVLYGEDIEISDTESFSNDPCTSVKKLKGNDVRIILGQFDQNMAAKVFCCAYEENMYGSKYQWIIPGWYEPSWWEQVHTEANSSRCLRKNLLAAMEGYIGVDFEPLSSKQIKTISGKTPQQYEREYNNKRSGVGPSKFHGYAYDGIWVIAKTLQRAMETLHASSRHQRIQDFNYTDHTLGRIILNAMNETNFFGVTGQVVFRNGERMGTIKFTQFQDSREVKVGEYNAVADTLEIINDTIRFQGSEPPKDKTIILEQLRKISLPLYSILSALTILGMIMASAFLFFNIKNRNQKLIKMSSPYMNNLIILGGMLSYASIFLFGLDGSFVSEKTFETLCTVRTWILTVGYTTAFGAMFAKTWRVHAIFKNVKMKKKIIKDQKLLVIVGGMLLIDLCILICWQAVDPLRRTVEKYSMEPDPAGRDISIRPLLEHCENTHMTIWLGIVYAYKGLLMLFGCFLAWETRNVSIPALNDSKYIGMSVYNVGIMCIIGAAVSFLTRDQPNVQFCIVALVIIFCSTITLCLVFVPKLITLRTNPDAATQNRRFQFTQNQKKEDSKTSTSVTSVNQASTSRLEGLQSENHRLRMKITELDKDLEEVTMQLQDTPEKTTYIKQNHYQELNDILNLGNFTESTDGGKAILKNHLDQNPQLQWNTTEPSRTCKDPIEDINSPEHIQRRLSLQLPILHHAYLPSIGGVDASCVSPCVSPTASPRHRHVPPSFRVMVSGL

`CC(C)(O)Cn1c(=O)n(Cc2ccc(Cl)c(Cl)c2)c(=O)c2ccc(C(F)(F)F)cc21` [Example 2, 3-(3,4-Dichlorobenzyl)-1-(2-hydroxy-2-methylpropyl)-7-(trifluoromethyl)quinazoline-2,4(1H,3H)-dione]: in assay [1], the “IA (GABAB agonism)” value stood at 0.14 and the “IA (GABAB positive allosteric modulation)” value was 0.65. Moreover, the “Potentiation of GABA (fold)” value in assay [2] is recorded as 11 fold.
The matching figures for `Cn1c(=O)n(C2CCCc3ccccc32)c(=O)c2ccc(C(F)(F)F)cc21` (stereo not drawn) [Example 12, 1-Methyl-3-(1,2,3,4-tetrahydronaphthalen-1-yl)-7-(trifluoromethyl)quinazoline-2,4(1H,3H)-dione]: 0.20, 0.67 and 25.8 fold.
Consider `Cn1c(=O)n(Cc2ccc(Br)cc2)c(=O)c2ccc(Cl)cc21` [Example 18, 3-(4-Bromobenzyl)-7-chloro-1-methylquinazoline-2,4(1H,3H)-dione], for which, in assay [1], the “IA (GABAB agonism)” value worked out at 0.06 and the “IA (GABAB positive allosteric modulation)” value turned out to be 0.43. The “Potentiation of GABA (fold)” value in assay [2] is recorded as 1.6 fold.
The matching figures for `CC(C)(C)C(=O)Cn1c(=O)n(Cc2ccc(Br)cc2)c(=O)c2ccc(F)cc21` [Example 26, 3-(4-Bromobenzyl)-1-(3,3-dimethyl-2-oxobutyl)-7-fluoroquinazoline-2,4(1H,3H)-dione]: 0.08, 0.48 and 1.7 fold.
The matching figures for `Cn1c(=O)n(Cc2ccc(Br)cc2)c(=O)c2ccc(F)cc21` [Example 33, 3-(4-Bromobenzyl)-7-fluoro-1-methylquinazoline-2,4(1H,3H)-dione]: 0.23, 0.45 and 4.8 fold.
In the same order, the values of `CC(C(N)=O)n1c(=O)n(Cc2ccc(Br)cc2)c(=O)c2ccc(F)cc21` (stereo not drawn) [Example 37, 2-(3-(4-Bromobenzyl)-7-fluoro-2,4-dioxo-3,4-dihydroquinazolin-1(2H)-yl)propanamide] are 0.21, 0.39 and 1.9 fold.
For `CC(C)n1c(=O)n(Cc2ccc(Br)cc2)c(=O)c2ccc(F)cc21` [Example 38, 3-(4-Bromobenzyl)-7-fluoro-1-isopropylquinazoline-2,4(1H,3H)-dione], in assay [1], the “IA (GABAB agonism)” value turned out to be 0.13 and the “IA (GABAB positive allosteric modulation)” value is recorded as 0.21. The “Potentiation of GABA (fold)” value in assay [2] is reported as 3.5 fold.
The matching figures for `CC(C)(O)Cn1c(=O)n(Cc2ccc(Br)cc2)c(=O)c2ccc(F)cc21` [Example 39, 3-(4-Bromobenzyl)-7-fluoro-1-(2-hydroxy-2-methylpropyl)quinazoline-2,4(1H,3H)-dione]: 0.30, 0.85 and 23.1 fold.
The matching figures for `Cn1c(=O)n(Cc2ccc([N+](=O)[O-])cc2)c(=O)c2ccc(F)cc21` [Example 40, 7-Fluoro-1-methyl-3-(4-nitrobenzyl)quinazoline-2,4(1H,3H)-dione]: 0.04, 0.26 and 1.5 fold.
On to `CC(C)(O)Cn1c(=O)n(Cc2ccc(Cl)c(Oc3ccccc3)c2)c(=O)c2ccc(F)cc21` [Example 41, 3-(4-Chloro-3-phenoxybenzyl)-7-fluoro-1-(2-hydroxy-2-methylpropyl)quinazoline-2,4(1H,3H)-dione], for which, in assay [1], the “IA (GABAB agonism)” value is given as 0.10 and the “IA (GABAB positive allosteric modulation)” value turned out to be 0.47. Further, in assay [2], the “Potentiation of GABA (fold)” value is recorded as 2.8 fold.
In the same order, the values of `C[C@H](c1ccc(Cl)cc1)n1c(=O)c2ccc(F)cc2n(C)c1=O` [Example 42, (R)-3-(1-(4-Chlorophenyl)ethyl)-7-fluoro-1-methylquinazoline-2,4(1H,3H)-dione] are 0.18, 0.37 and 7.3 fold.
